{
  "source": "ChEMBL document CHEMBL6083206",
  "about": "“SLL-1A-16 suppresses proliferation and induces autophagy in non-small-cell lung cancer cells via the AKT/mTOR signaling pathway” (RSC Med Chem, 2024)",
  "experiment": "Toxicity in Balb/c nude mouse xenografted with human A549 cells assessed as reduction in body weight at 25 mg/kg, ip administered for 14 days",
  "type": "organism-based",
  "settings": "in vivo, 336 h, time 14 day",
  "data": [
    {"smiles": "Cl.Nc1ccn([C@@H]2O[C@H](CO)[C@@H](O)C2(F)F)c(=O)n1", "note": "[GEMCITABINE HYDROCHLORIDE]", "values": [
      {"measurement": "Activity", "value": "Toxic"}
    ]}
  ]
}
